Experimental data reported in article PMC3760497 (Nature, 2011).

Target: Get3 (Saccharomyces cerevisiae, UniProt Q12154, D57N)
Test: mant-ATP chase titration, fluorescence
Format: binding
Details: 1 uM Get3(D57N), 1 uM mant-ATP; 50 mM HEPES pH 7.5, 100 mM NaCl, 5 mM MgCl2; competitive with mant-ATP

Get3, sequence (Q12154 whole entry D57N): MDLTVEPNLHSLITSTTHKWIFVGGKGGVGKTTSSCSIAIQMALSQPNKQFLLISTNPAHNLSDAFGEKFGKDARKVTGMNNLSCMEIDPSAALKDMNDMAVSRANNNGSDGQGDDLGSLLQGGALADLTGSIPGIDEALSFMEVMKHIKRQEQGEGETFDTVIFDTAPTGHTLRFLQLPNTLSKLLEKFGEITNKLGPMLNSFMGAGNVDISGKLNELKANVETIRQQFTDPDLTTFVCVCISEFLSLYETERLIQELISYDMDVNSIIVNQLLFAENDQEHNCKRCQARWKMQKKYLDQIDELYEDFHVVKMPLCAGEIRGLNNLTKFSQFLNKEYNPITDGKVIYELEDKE

For `Nc1ncnc2c1ncn2[C@@H]1O[C@H](COP(=O)(O)OP(=O)(O)O)[C@@H](O)[C@H]1O` [ADP], the dissociation constant was “ADP (which binds weakly to substrate-free Get3; Sup. Fig. S18)”.
